Experimental data published in publication PMC9404653, “EphA4 targeting agents protect motor neurons from cell death induced by amyotrophic lateral sclerosis -astrocytes” (iScience, 2022).
Read-outs that look alike come from different tables or passages of the source. Non-standard residues stand in square brackets, D forms with d. Residues, ends and D or L forms follow the SMILES beside them. *: point of attachment. Cyclohexanoyl(1S,3S-3-NH2) = N[C@H]1CCC[C@H](C(=O)*)C1; Trp(5-OH) = N[C@@H](Cc1c[nH]c2ccc(O)cc12)C(=O)O; NH(4-morpholinophenyl) = c1cc(N2CCOCC2)ccc1N*; Bip = N[C@@H](Cc1ccc(-c2ccccc2)cc1)C(=O)O; hArg = N=C(N)NCCCC[C@H](N)C(=O)O; X1 = c1cc(N2CCNCC2)ccc1N*

B1: ephrinA4: intact ephrin ligand of EphA4 (protein, UniProt P52798 26-170, looked up)
Ephrin-A4: LRHVVYWNSSNPRLLRGDAVVELGLNDYLDIVCPHYEGPGPPEGPETFALYMVDWPGYESCQAEGPRAYKRWVCSLPFGHVQFSEKIQRFTPFSLGFEFLPGETYYYISVPTPESSGQCLRLQVSVCCKERKSESAHPVGSPGES
B2: ephrinA5: intact ephrin ligand of EphA4 (protein, UniProt P52803 21-203, looked up)
Ephrin-A5: QDPGSKAVADRYAVYWNSSNPRFQRGDYHIDVCINDYLDVFCPHYEDSVPEDKTERYVLYMVNFDGYSACDHTSKGFKRWECNRPHSPNGPLKFSEKFQLFTPFSLGFEFRPGREYFYISSAIPDNGRRSCLKLKVFVRPTNSCMKTIGVHDRVFDVNDKVENSLEPADDTVHESAEPSRGEN

Legend:
[1] = target: T1, EphA4 ligand-binding domain (Homo sapiens, UniProt P54764); assay: Isothermal titration calorimetry (ITC) vs EphA4-LBD; conditions: for N (ITC stoichiometry): ITC curve, Figure 2C/2D; for Kd: ITC, 25°C, 25 mM Tris pH 7.5, 150 mM NaCl, 1% DMSO, mean ± SE, n = 2
Procedure: (§1) Previously, we deployed the HTS by NMR (High-throughput Screening by Nuclear Magnetic Resonance) approach targeting the EphA4 ligand-binding domain to identify possible ligands from a tri-peptide positional scanning library consisting of ∼125,000 agents ([Wu et al., 2013]). Initial screen and subsequent structure-activity relationships studies lead to agent 123C4 (Table 1), with an affinity for the isolated EphA4 ligand-binding domain (LBD) of ∼400 nM by isothermal titration calorimetry (ITC) ([Wu et al., 2013], [2017]). In follow-up studies, we derived a new combinatorial library based on the critical N-terminal aliphatic amine of 123C4 (a common feature also of antagonistic peptides) ([Olson et al., 2016]; [Wu et al., 2013]) and exploited our previous experience with the fHTS by NMR ([Baggio et al., 2017]), we rapidly identified a new hit molecule ([Baggio et al., 2021]). We also developed an efficient strategy to anticipate if ligand binding would induce changes in EphA4 conformation that are more compatible with agonist versus antagonist binding ([Baggio et al., 2021]). This was accomplished by protein NMR using EphA4-LBD that is uniformly labeled with ^13C^ε-methionine ([Wu et al., 2017]). […] In particular, EphA4 residues Met 164, Met 60 (in the binding site), and Met 115 are located in the D-E loop, J-K loop, and G-H loop of the EphA4-LBD, respectively (Figures 1A-1C). […] For example, we reported that the 13mer antagonistic cyclic peptide APY-d3 ([Olson et al., 2016]) induces changes not only in binding site Met 164 and Met 60 resonances, but also in Met 115, located in the G-H loop, that is at the EphA4-LBD dimerization interface (Figure 1D). […] With these considerations in mind, ligand 150D4 was previously derived as described in our recent studies (Table 1; [Baggio et al., 2021]). […] Dissociation constant determination was obtained via isothermal titration calorimetry (ITC) measurements (Table 1, Figure 2). Similarly, selectivity studies were performed via ITC and ligand-binding domain constructs representing the two most closely related Eph domains, namely EphA3 and EphA2 (Table 1). […] These studies culminated in the identification of agonistic agents targeting the EphA4 ligand-binding domain.
Isothermal titration calorimetry measurements were performed using the Affinity ITC Autosampler from TA Instruments (New Castle, DE). The titrations were performed in a reverse fashion by titrating the protein into the ligand solution. […] Each titration was performed twice and individually using the ITCRun software, analyzed using NanoAnalyze software (TA Instruments, New Castle, DE) and subsequently exported into Microsoft Excel. […]

[2] = Aqueous solubility by 1H NMR; assay type: physicochemical; conditions: water; determined by 1H NMR
[3] = target: T2, EphA4-LBD (Homo sapiens, UniProt P54764); assay: 2D [13C,1H] NMR chemical shift perturbation of 13Cε-Met labeled EphA4-LBD; assay type: binding; conditions: for Chemical shift perturbation to Met 115 (G-H loop): 13Cε-Met labeled EphA4-LBD; for Δδ Met 60 / Δδ Met 164: weight average 1H/13C chemical shift perturbation, 20 μM EphA4-LBD, 298 K
T2 construct: Met labeled EphA4-LBD (29-209) (20 μM) in absence (blue)
Procedure: as §1
NMR spectra were acquired on Bruker Avance III 700MHz spectrometer equipped with a TCI cryoprobe. All NMR data were processed and analyzed using TOPSPIN 3.6.1 (Bruker, Billerica, MA, USA). 2D-[^13C,^1H]-HSQC experiments were acquired with 20 μM proteins using 16 scans with 2,048 and 256 complex data points in the ^1H and […] dimensions, respectively, at 298 K. Chemical shift changes (Δδ) in the 2D [^13C, ^1H] spectra were calculated as weight average perturbations observed in the ^1H and ^13C dimensions using the following Equation: Δδ=1/2∗[(Δ^1H)^2+(0.3∗Δ^13C)^2]

[4] = tested on: motor neurons co-cultured with patient iAstrocytes (sALS, mutant SOD1); assay: Patient iAstrocyte:motor neuron co-culture, motor neuron survival; conditions: 10 μM, sALS patient iAs (ALS1; second patient line Figure S3)
Procedure: Here, we tested the effectiveness of synthetic agonists by co-culturing patient iAs (2 sALS and 3 mtSOD1, Sup. Table 1) and mouse motor neurons in the presence of 123C4 (Figure 5A). Three days following co-culture surviving motor neurons were imaged (Figure 5B).
At the time of motor neuron seeding, the drug was removed via aspiration, and motor neurons in freshly prepared media were cultured on the iAs monolayer. In addition, 123C4 was also added at the time of co-culture as described in Figure 5A.
To accommodate a compound screen of this size, co-culture assays were adapted to a 384 well format.
Induced Astrocytes were generated by seeding a low quantity of NPCs into astrocyte medium (DMEM media containing 10% FBS and 0.2% N2) for five days. Following differentiation, iAstrocytes were lifted and seeded into a 96 well (10,000 cells per well) or 384 well (2500 cells per well) plate. Differentiations were repeated at separate passages and each differentiation was counted as an independent experiment.
Cells are sorted through a 100 μm tip with sheath pressure of 27. GFP + motor neurons were seeded in a 96 well plate (10,000 cells per well) or 384 well (1,000 cells per well) in triplicate for each condition. Co-cultures were imaged with InCell Analyzer 6000 automated microscopy system for up to six days. […]

[5] = target: ephrinA4 or ephrinA5 (Homo sapiens) (UniProt P52803); conditions: cited from earlier work
[6] = target: T1, EphA4 ligand-binding domain; conditions: ref Bowden et al., 2009a, 2009b, read-out: Affinity of intact ephrin ligands for EphA4; cited from earlier work

T2 sequence (P54764 29-209): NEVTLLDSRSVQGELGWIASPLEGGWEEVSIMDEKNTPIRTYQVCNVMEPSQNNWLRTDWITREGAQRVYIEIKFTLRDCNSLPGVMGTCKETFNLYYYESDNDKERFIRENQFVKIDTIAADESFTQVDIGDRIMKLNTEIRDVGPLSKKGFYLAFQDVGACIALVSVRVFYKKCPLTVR
T1 sequence (P54764 30-209 limits assumed): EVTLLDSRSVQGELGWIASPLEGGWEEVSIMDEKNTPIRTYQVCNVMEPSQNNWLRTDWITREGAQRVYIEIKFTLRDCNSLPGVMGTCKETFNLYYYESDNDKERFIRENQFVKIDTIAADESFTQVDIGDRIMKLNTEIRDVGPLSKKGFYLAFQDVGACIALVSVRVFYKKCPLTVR

| Molecule | N (ITC stoichiometry) [1] | Kd [1] [nM] | solubility [2] [mM] | Chemical shift perturbation to Met 115 (G-H loop) [3] | Δδ Met 60 [3] | Δδ Met 164 [3] | Motor neuron survival [4] | Kd [5] [nM] | Kd [6] [nM] |
| --- | --- | --- | --- | --- | --- | --- | --- | --- | --- |
| C[C@@H](NC(=O)[C@H](CCCCNC(=N)N)NC(=O)[C@H](Cc1ccc(-c2ccccc2)cc1)NC(=O)[C@H](Cc1c[nH]c2ccc(O)cc12)NC(=O)[C@H]1CCC[C@H](N)C1)C(=O)Nc1ccc(N2CCOCC2)cc1 [150E7, (1S,3S)-N-((S)-1-(((S)-3-([1,1'-biphenyl]-4-yl)-1-(((S)-6-guanidino-1-(((R)-1-((4-morpholinophenyl)amino)-1-oxopropan-2-yl)amino)-1-oxohexan-2-yl)amino)-1-oxopropan-2-yl)amino)-3-(5-hydroxy-1H-indol-3-yl)-1-oxopropan-2-yl)-3-aminocyclohexane-1-carboxamide] ({Cyclohexanoyl(1S,3S-3-NH2)}-[Trp(5-OH)][Bip][hArg][dA]-{NH(4-morpholinophenyl)}) | 0.99 | 129 ± 4.5 | > 50 | do not alter loop G-H | +++ (+++ > 0.1 ppm) | ++ (0.2 ppm < ++ < 0.25 ppm) | effective at preventing motor neuron death | – | – |
| N=C(N)NCCCC[C@H](NC(=O)[C@H](Cc1ccc(-c2ccccc2)cc1)NC(=O)[C@H](Cc1c[nH]c2ccc(O)cc12)NC(=O)[C@H]1CCC[C@H](N)C1)C(=O)NCC(=O)Nc1ccc(N2CCNCC2)cc1 [150E8, (1S,3S)-N-((S)-1-(((S)-3-([1,1'-biphenyl]-4-yl)-1-(((S)-6-guanidino-1-oxo-1-((2-oxo-2-((4-(piperazin-1-yl)phenyl)amino)ethyl)amino)hexan-2-yl)amino)-1-oxopropan-2-yl)amino)-3-(5-hydroxy-1H-indol-3-yl)-1-oxopropan-2-yl)-3-aminocyclohexane-1-carboxamide] ({Cyclohexanoyl(1S,3S-3-NH2)}-[Trp(5-OH)][Bip][hArg]G-X1) | 1.01 | 94.3 ± 4.4 | > 50 | do not alter loop G-H | ++ (0.05 ppm < ++ < 0.1 ppm) | ++++ (++++ > 0.3 ppm) | effective at preventing motor neuron death | – | – |
| EphA4 ligand-binding domain (from UniProt P54764) | – | – | – | – | – | – | – | 360 | – |
| B1 | – | – | – | – | – | – | – | – | ~360 |
| B2 | – | – | – | – | – | – | – | – | ~360 |
